Measured values reported in ChEMBL document CHEMBL5365442, “A novel chalcone derivative exerts anticancer effects by promoting apoptotic cell death of human pancreatic cancer cells” (Bioorg Med Chem, 2023).
Values belong to the compound of their own block, whether it stands above or below them. Active and inactive are the calls of the source. The calls are words filed in the database; no cut-off is given here.

What was measured:
BXPC-3 [1] = assay: Antiproliferative activity against human BXPC-3 cells assessed as inhibition of cell growth incubated for 72 hrs by WST-1 assay; format: functional, cell-based; details: BXPC-3, 72 h
BXPC-3 [2] = assay: Antiproliferative activity against human BXPC-3 cells assessed as inhibition of cell growth incubated for 48 hrs by WST-1 assay; format: functional, cell-based; details: BXPC-3, 48 h
BXPC-3 [3] = assay: Antiproliferative activity against human BXPC-3 cells assessed as inhibition of cell growth incubated for 24 hrs by WST-1 assay; format: functional, cell-based; details: BXPC-3, 24 h
[4] = 1-octanol/PBS partition coefficient, logD of the compound at pH 7.4 by HPLC analysis; format: physicochemical
[5] = Downregulation of phosphorylated ERK protein expression in human BXPC-3 cells at 10 to 30 uM incubated for 24 hrs by Western blot analysis relative to control; format: functional; details: dose 10-30 µM
BXPC-3 [6] = assay: Induction of apoptosis in human BXPC-3 cells assessed as nuclear condensation at 30 uM incubated for 24 hrs by Hoechst staining based confocal microscopic analysis; format: functional, cell-based
BXPC-3 [7] = assay: Induction of apoptosis in human BXPC-3 cells assessed as increase in cleaved caspase 3 level at 10 to 30 uM incubated for 24 hrs by Western blot analysis; format: functional, cell-based; details: dose 10-30 µM
BXPC-3 [8] = assay: Induction of apoptosis in human BXPC-3 cells assessed as membrane blebbing at 30 uM incubated for 24 hrs by SRS microspectroscopic analysis; format: functional, cell-based
BXPC-3 [9] = assay: Induction of apoptosis in human BXPC-3 cells assessed as porous appearance at 30 uM incubated for 24 hrs by SRS microspectroscopic analysis; format: functional, cell-based
BXPC-3 [10] = assay: Induction of apoptosis in human BXPC-3 cells assessed as decrease in number of anti-Ki67 cells at 30 uM incubated for 24 hrs by anti-Ki67 staining based confocal microscopic analysis; format: functional, cell-based
BXPC-3 [11] = assay: Induction of apoptosis in human BXPC-3 cells assessed as increase in number of dead cells at 30 uM incubated for 24 hrs by EthD-1 staining based fluorescence microscopic analysis relative to control; format: functional
BXPC-3 [12] = assay: Induction of apoptosis in human BXPC-3 cells assessed as accretion of lipid-like substances at 30 uM incubated for 24 hrs by SRS microspectroscopic analysis; format: functional, cell-based
BXPC-3 [13] = assay: Induction of mitochodrial fission in human BXPC-3 cells assessed as reduction in mitochondrial length at 30 uM incubated for 24 hrs by MitoTracker Red CMX ROS staining based confocal microscopic analysis relative to control; format: functional; set-up: scale not given: the % may be the effect or the level left
BXPC-3 [14] = assay: Induction of apoptosis in human BXPC-3 cells assessed as increase in cleaved PARP level at 30 uM incubated for 24 hrs by Western blot analysis; format: functional, cell-based
BXPC-3 [15] = assay: Induction of apoptosis in human BXPC-3 cells assessed as decrease in intensity of protein-associated SRS bands at 30 uM incubated for 24 hrs by SRS microspectroscopic analysis; format: functional, cell-based
[16] = Upregulation of phosphorylated p38 protein expression in human BXPC-3 cells at 10 to 30 uM incubated for 24 hrs by Western blot analysis relative to control; format: functional; details: dose 10-30 µM
BXPC-3 [17] = assay: Induction of apoptosis in human BXPC-3 cells assessed as increase in intensity of lipid-associated SRS bands at 30 uM incubated for 24 hrs by SRS microspectroscopic analysis; format: functional, cell-based
BXPC-3 [18] = assay: Induction of apoptosis in human BXPC-3 cells assessed as enlargement of cells at 30 uM incubated for 24 hrs by SRS microspectroscopic analysis; format: functional, cell-based
BXPC-3 [19] = assay: Induction of apoptosis in human BXPC-3 cells assessed as increase in BAX/Bcl-2 mRNA expression ratio at 30 uM incubated for 24 hrs by RT-PCR analysis relative to control; format: functional
BXPC-3 [20] = assay: Induction of mitochodrial fission in human BXPC-3 cells assessed as reduction in mitochondrial length at 10 uM incubated for 24 hrs by MitoTracker Red CMX ROS staining based confocal microscopic analysis; format: functional, cell-based
BXPC-3 [21] = assay: Induction of apoptosis in human BXPC-3 cells assessed as increase in cleaved caspase 3 level at 10 uM incubated for 24 hrs by Western blot analysis; format: functional, cell-based
BXPC-3 [22] = assay: Induction of apoptosis in human BXPC-3 cells assessed as increase in cleaved PARP level at 10 uM incubated for 24 hrs by Western blot analysis; format: functional, cell-based
BXPC-3 [23] = assay: Induction of apoptosis in human BXPC-3 cells assessed as increase in lipid level at 10 uM incubated for 24 hrs by SRS microspectroscopic analysis; format: functional, cell-based

- IC50 (BXPC-3 [1]): 24 µM
- IC50 (BXPC-3 [2]): 27.1 µM
- IC50 (BXPC-3 [3]): 26.3 µM
- logD [4]: 2.98
Structure (SMILES): COc1ccc(O)c(C(=O)/C=C/c2cccc(OC)c2OC)c1

Structure (SMILES): COc1ccc(OCC(O)CO)c(C(=O)/C=C/c2cccc(OC)c2OC)c1 (stereo not given)
- Activity [5]: 50%
- IC50 (BXPC-3 [1]): 7.94 µM
- Activity (BXPC-3 [6]): Active
- Activity (BXPC-3 [7]): Active
- Activity (BXPC-3 [8]): Active
- Activity (BXPC-3 [9]): Active
- Activity (BXPC-3 [10]): Active
- IC50 (BXPC-3 [2]): 11.7 µM
- IC50 (BXPC-3 [3]): 32.1 µM
- Activity (BXPC-3 [11]): 256.18%
- Activity (BXPC-3 [12]): Active
- Activity (BXPC-3 [13]): 16%
- Activity (BXPC-3 [14]): Active
- Activity (BXPC-3 [15]): Active
- logD [4]: 2.42
- Activity [16]: 367.3%
- Activity (BXPC-3 [17]): Active
- Activity (BXPC-3 [18]): Active
- Activity (BXPC-3 [19]): 217.4%

- IC50 (BXPC-3 [1]): 5.51 µM
- IC50 (BXPC-3 [2]): 6.83 µM
- IC50 (BXPC-3 [3]): 12.2 µM
Structure (SMILES): Nc1ccn([C@@H]2O[C@H](CO)[C@@H](O)C2(F)F)c(=O)n1 [GEMCITABINE]
- Activity (BXPC-3 [20]): Active
- Activity (BXPC-3 [21]): Active
- Activity (BXPC-3 [22]): Active
- Activity (BXPC-3 [23]): Active
